Source: patent publication US10758549B2, “Compositions of obeticholic acid and methods of use” (Intercept Pharmaceuticals, Inc., priority 2015, dated 2020)

System: subjects with primary biliary cirrhosis
Test: Example 8: OCA in combination with UDCA in subjects with primary biliary cirrhosis
Type: in vivo, human
Experimental: This example describes a study conducted using an international, multi-center, randomized, double-blind, placebo-controlled, multi-dose, parallel group to determine efficacy and safety of obeticholic acid (OCA) in combination with ursodeoxycholic acid (UDCA) in subjects with primary biliary cirrhosis.
Key Exclusion criteria • Use of colchicine, methotrexate, azathioprine, or systemic corticosteroids • Screening conjugated (direct) bilirubin>2×ULN; ALT or AST>5×ULN; serum creatinine>1.5 mg/dL (133 μmol/L) • History or presence of hepatic decompensation (e.g., variceal bleeds, encephalopathy, or poorly controlled ascites) • History or presence of other concomitant liver diseases or human immunodeficiency virus (HIV) or other viral hepatitis infection • Clinically significant medical condition, and gastrointestinal conditions affecting drug ADME
The percent change (%) in serum ALP from Baseline to End of Study (EOS) was tested where [EOS=Day 85 or last observed ALP value on treatment]
Also observed were the absolute and percent changes in serum ALP levels from Baseline to Day 15, Day 29, Day 57, Day 85/ET and Follow-Up (Day 99). Patients were examined for the absolute and percent change in serum gamma-glutamyl transferase (GGT), alanine aminotransferase (ALT), and aspartate aminotransferase (AST) values from Baseline to Day 15, Day 29, Day 57, Day 85/ET and Follow-Up (Day 99). Patients were examined for absolute and percent changes in serum albumin and conjugated (direct) bilirubin values from Baseline to Day 15, Day 29, Day 57, Day 85/ET and Follow-Up (Day 99). Patients' Enhanced liver fibrosis (ELF) score and change in levels of its components, hyaluronic acid, aminoterminal peptide of pro-collagen III, and tissue inhibitor of matrix metalloproteinase-1 from Baseline to Day 85/ET were performed. The absolute and percent changes in levels of C-reactive protein, non-esterified fatty acid, tumor necrosis factor alpha, tumor necrosis factor beta, tumor growth factor beta, bile acids, glutathione, immunoglobulin M, and osteopontin from Baseline to Day 85/ET were taken.
Overall, 165 subjects (100%) received at least 1 dose of investigational product (ITT and Safety Populations) and 136 subjects comprised the Completer Population. One hundred sixty-one subjects (98%) were included for the analysis of the mITT Population as measured by the percent change in ALP from Baseline to EOS; the mITT Population for sensitivity analysis of the primary endpoint included 163 subjects. It should be noted that the mITT population was defined for the primary analysis as all patients randomized who received at least one dose of study medication and had at least one post-baseline ALP evaluation which was taken at most seven days after their last dose of study medication. (See FIG. 10). The mITT Population for the sensitivity analysis included ALP assessments obtained up to 15 days after the last investigational product use (unlike 7 days for primary endpoint). The number of subjects was balanced across all groups in all analysis populations with the exception of the Completer Population due to the higher proportion of discontinuations with OCA 50 mg.

[1] = OCA 10 mg + UDCA, Completer (n = 32)
[2] = OCA 25 mg + UDCA, Completer (n = 42)
[3] = OCA 50 mg + UDCA, Completer (n = 25)

**Q.** `CC[C@H]1[C@@H](O)[C@@H]2[C@H](CC[C@]3(C)[C@@H]([C@H](C)CCC(=O)O)CC[C@@H]23)[C@@]2(C)CC[C@@H](O)C[C@@H]12` [OCA, 3α,7α-dihydroxy-6α-ethyl-5β-cholan-24-oic acid] was tested. Which “ALP Mean Change, Baseline to Day 85/ET” value [1] did it give?
**A.** The value was −86.3 U/L.

**Q.** What about the “ALP Mean Percent Change, Baseline to Day 85/ET” value (“ALP Mean Percent Change” for short) [1] of the same compound?
**A.** Its value is −26.7%.

**Q.** What about the “ALP Median Change, Baseline to Day 85/ET” value [1] of the same compound?
**A.** The value was −61.3 U/L.

**Q.** What about the “ALP Median Percent Change, Baseline to Day 85/ET” value (from here on “ALP Median Percent Change”) [1] of the same compound?
**A.** Its value is −23.5%.

**Q.** What about the “ALP at Day 85/ET, Mean” value [1] of the same compound?
**A.** The value was 212.3 U/L.

**Q.** What about the “ALP at Day 85/ET, Median” value [1] of the same compound?
**A.** Its value is 175.0 U/L.

**Q.** What about the “ALP Mean Change, Baseline to Day 85/ET” value (OCA 10 mg + UDCA, ITT (n = 38)) of the same compound?
**A.** Its value is −75.4 U/L.

**Q.** And the “ALP Mean Percent Change” value (OCA 10 mg + UDCA, ITT (n = 38))?
**A.** Its value is −23.3%.

**Q.** And the “ALP Median Change, Baseline to Day 85/ET” value (OCA 10 mg + UDCA, ITT (n = 38))?
**A.** Its value is −47.5 U/L.

**Q.** What about the “ALP Median Percent Change” value (OCA 10 mg + UDCA, ITT (n = 38)) of the same compound?
**A.** Its value is −21.0%.

**Q.** And the “ALP at Day 85/ET, Mean” value (OCA 10 mg + UDCA, ITT (n = 38))?
**A.** The value was 219.0 U/L.

**Q.** What about the “ALP at Day 85/ET, Median” value (OCA 10 mg + UDCA, ITT (n = 38)) of the same compound?
**A.** The value was 177.5 U/L.

**Q.** What about the “ALP Mean Change, Baseline to Day 85/ET” value [2] of the same compound?
**A.** The value was −76.0 U/L.

**Q.** And the “ALP Mean Percent Change” value [2]?
**A.** The value was −26.6%.

**Q.** What about the “ALP Median Change, Baseline to Day 85/ET” value [2] of the same compound?
**A.** Its value is −71.3 U/L.

**Q.** What about the “ALP Median Percent Change” value [2] of the same compound?
**A.** The value was −28.2%.

**Q.** What about the “ALP at Day 85/ET, Mean” value [2] of the same compound?
**A.** The value was 199.0 U/L.

**Q.** What about the “ALP at Day 85/ET, Median” value [2] of the same compound?
**A.** Its value is 187.5 U/L.

**Q.** And the “ALP Mean Change, Baseline to Day 85/ET” value (OCA 25 mg + UDCA, ITT (n = 48))?
**A.** Its value is −65.0 U/L.

**Q.** And the “ALP Mean Percent Change” value (OCA 25 mg + UDCA, ITT (n = 48))?
**A.** Its value is −24.0%.

**Q.** What about the “ALP Median Change, Baseline to Day 85/ET” value (OCA 25 mg + UDCA, ITT (n = 48)) of the same compound?
**A.** The value was −69.3 U/L.

**Q.** What about the “ALP Median Percent Change” value (OCA 25 mg + UDCA, ITT (n = 48)) of the same compound?
**A.** The value was −27.8%.

**Q.** What about the “ALP at Day 85/ET, Mean” value (OCA 25 mg + UDCA, ITT (n = 48)) of the same compound?
**A.** Its value is 225.0 U/L.

**Q.** And the “ALP at Day 85/ET, Median” value (OCA 25 mg + UDCA, ITT (n = 48))?
**A.** Its value is 187.5 U/L.

**Q.** What about the “ALP Mean Change, Baseline to Day 85/ET” value [3] of the same compound?
**A.** Its value is −101.8 U/L.

**Q.** And the “ALP Mean Percent Change” value [3]?
**A.** Its value is −32.5%.

**Q.** And the “ALP Median Change, Baseline to Day 85/ET” value [3]?
**A.** Its value is −76.0 U/L.

**Q.** What about the “ALP Median Percent Change” value [3] of the same compound?
**A.** The value was −33.9%.

**Q.** What about the “ALP at Day 85/ET, Mean” value [3] of the same compound?
**A.** Its value is 179.1 U/L.

**Q.** What about the “ALP at Day 85/ET, Median” value [3] of the same compound?
**A.** Its value is 158.5 U/L.

**Q.** And the “ALP Mean Change, Baseline to Day 85/ET” value (OCA 50 mg + UDCA, ITT (n = 41))?
**A.** Its value is −62.9 U/L.

**Q.** What about the “ALP Mean Percent Change” value (OCA 50 mg + UDCA, ITT (n = 41)) of the same compound?
**A.** The value was −20.0%.

**Q.** And the “ALP Median Change, Baseline to Day 85/ET” value (OCA 50 mg + UDCA, ITT (n = 41))?
**A.** Its value is −56.5 U/L.

**Q.** And the “ALP Median Percent Change” value (OCA 50 mg + UDCA, ITT (n = 41))?
**A.** The value was −22.7%.

**Q.** And the “ALP at Day 85/ET, Mean” value (OCA 50 mg + UDCA, ITT (n = 41))?
**A.** The value was 227.9 U/L.

**Q.** And the “ALP at Day 85/ET, Median” value (OCA 50 mg + UDCA, ITT (n = 41))?
**A.** The value was 197.0 U/L.
